# Data: the METLIN SMRT retention time set (Domingo-Almenara et al. 2019)
# Experiment: gradient 5% acetonitrile 3 min, to 50% in 2 min, to 85% in 15 min, held 3 min, 100 µL/min
# Conditions: column: Zorbax Extend-C18 2.1 x 50 mm; eluents: water / acetonitrile, 0.1% formic acid
# In short: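 A Zorbax Extend-C18 column (2.1 × 50 mm, 1.8 μm) run at 100 μL/min with water and acetonitrile, both containing 0.1% formic acid, separated mixtures of ~100 pure standards. The HPLC was coupled to a quadrupole time-of-flight mass spectrometer operated in positive and negative ionization mode, with dead and dwell volumes of 40 μL and 900 μL. Each retention time was taken from a computationally picked adduct peak that was then manually inspected.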
row,SMILES,RP-LC retention time
1,Nc1ccc(C(=O)c2ccccc2)cc1[N+](=O)[O-],783 s
2,CC(C)(N)C(=O)N[C@H](COCc1ccccc1)C(=O)N1CCC2(CC1)CN(S(C)(=O)=O)c1ccccc12,777 s
3,CCc1ccc2oc(C(=O)NCC(c3cccs3)N(C)C)cc(=O)c2c1 (centres undefined),654 s
4,O=C(NCc1ccc(F)cc1)Nc1nnc(-c2ccco2)o1,706 s
5,O=C(NC1CCCC1)c1ccc(Cn2nc(N3CCN(c4ccccc4)CC3)ccc2=O)o1,844 s
6,O=C(Cn1nc2c(cc1=O)CCCCC2)Nc1nc(-c2cccnc2)cs1,646 s
7,Cc1ccc(C)c(NC(=O)c2cn3c(n2)CCCC3)c1,603 s
8,CCOc1ccccc1CNc1nccc(-n2nc(C)cc2C)n1,894 s
9,O=C(Nc1cc(-c2ccccn2)no1)C1CC1,668 s
10,CCn1ccc2oc(C)c(C(=O)N3CCN(c4ccc(OC)cc4)CC3)c2c1=O,682 s
11,COc1ccc(NS(=O)(=O)c2cc3c(s2)CCN(C(=O)C2CC2)C3)cc1Cl,826 s
12,COc1ccc(NC(=O)CN2C(=O)CCc3cc(Br)ccc32)c(OC)c1,900 s
13,Cc1ccc(NC(=O)N2CCCC(C)(C(=O)NCc3ccccc3)C2)cc1Cl (centres undefined),995 s
14,CC(C)OC(=O)c1ncoc1-c1ccccc1C(=O)NCC1CCCO1 (centres undefined),676 s
15,COc1ccc(-n2cc(C(=O)Oc3cccnc3)c3ccccc3c2=O)cc1,911 s
16,O=C(Nc1ccc(OCC(=O)N2CCN(c3ccccn3)CC2)nc1)C1CC1,580 s
17,CC(C)NC(=O)C1Cn2cccc2C(=O)N1C (centres undefined),651 s
18,CC1CCC(NC(=O)CN2C(=O)C(C(=O)N3CCCCC3)Sc3ccccc32)CC1 (centres undefined),1090 s
19,CCC(=O)N1CCc2c([nH]c3ccccc23)C12C(=O)N(C)c1ccccc12 (centres undefined),828 s
20,CCOc1ccccc1CNC(=O)C1CCCN(c2ccc(=O)n(-c3ccc(CC)cc3)n2)C1 (centres undefined),978 s
21,COc1ccc(-n2nnc(-c3nc(-c4cc(OC)ccc4OC)cs3)c2C)cc1,1140 s
22,O=C(c1cn2c(n1)CSCC2)N1CCC(Cc2ccccc2)CC1,720 s
23,CCOC(=O)c1[nH]c(C)c(CCC(=O)NCCN2CCOCC2)c1C,597 s

row,SMILES,RP-LC retention time
1,COc1ccc(CCc2nc3nccc(-c4cccc(OC)c4)n3n2)cc1,879 s
2,O=C(NCCc1c[nH]c2ccc(Cl)cc12)c1cccc(NC(=O)c2nnc(C3CC3)s2)c1,928 s
3,Cc1cc2nn(CC(=O)N3CCOCC3)c(=O)n2c(-c2cccc(Cl)c2)n1,708 s
4,CCN(CC)C(=O)c1ccc(-n2nc(C)c3c2CCCC3=O)cc1,691 s
5,COc1ccc(NS(=O)(=O)/C=C/c2ccccc2)cc1N1CCCC1=O,721 s
6,CCOC(=O)c1c(C)oc2nc(C)nc(NCc3ccc(CC)cc3)c12,1370 s
7,CCOc1ccc(NC(=O)c2cnc3c(c2)c(=O)n(C)c(=O)n3C)cc1,704 s
8,Cc1nc(-c2cc(S(=O)(=O)Nc3ccc(F)cc3F)c(C)s2)sc1C,1090 s
9,COc1ccc2c(c1)CC(NC(=O)NCc1ccc(OC)cc1OC)CO2 (centres undefined),780 s
10,COCCNC(=O)NCC(O)Cc1ccccc1 (centres undefined),591 s
11,COc1ccc(C)cc1Nc1ncnc(N)c1[N+](=O)[O-],780 s
12,O=C(C1CCCN(c2ncnc3c2nc2n3CCCCC2)C1)N1CCC(Cc2ccccc2)CC1 (centres undefined),1000 s
13,CCc1ccc(S(=O)(=O)N2CCC(C(=O)NCCc3csc(-c4cccs4)n3)CC2)cc1,1000 s
14,COCCCNC(=O)CCc1cn(-c2ccccc2)nc1-c1ccc2c(c1)OCO2,841 s
15,CCOc1ccccc1CNC(=O)c1ccc2c(c1)NC(=O)C1CCCCN21 (centres undefined),876 s
16,O=C(CSc1ccc2nnc(-c3cccnc3)n2n1)NC1CCCCC1,592 s
17,Cn1cc(C(=O)NCCCc2ccccc2)c(S(=O)(=O)N2CCSCC2)n1,944 s
18,Cc1c(C(=O)N2CCN(c3ccccn3)CC2)oc2ccc3c(c12)C(=O)CC1(CCCCCC1)O3,879 s
19,COc1ccc(N2CCN(CCNC(=O)C3CCCN(c4cc(=O)n(C)c(=O)n4C)C3)CC2)cc1 (centres undefined),583 s
20,O=C(NCCN1CCOCC1)c1cc2sccc2n1Cc1ccc(Cl)cc1,713 s
21,Cc1cc(=O)n(CC(=O)Nc2ccc(F)cc2)c(N2CCCC2)n1,618 s
22,CCN(CC)CCNC(=O)c1cc2n(n1)CCCN(Cc1cccc(C)c1)C2=O,630 s
23,CCN(CC)C(=O)c1ccc2c(c1)nnn2CCNC(=O)Nc1cc(F)ccc1F,714 s

row,SMILES,RP-LC retention time
1,Cc1ccc(NC(=O)N2CCCC(Cn3cnc4cccnc43)C2)cc1 (centres undefined),667 s
2,CSc1ccc(C2c3[nH]c4ccccc4c3CCN2C(=O)C2CC2)cc1 (centres undefined),1120 s
3,Cc1nncn1C1CCN(S(=O)(=O)c2ccc(C(C)C)cc2)CC1,674 s
4,CN(Cc1ccccc1)C(=O)c1cc2c(=O)oc3ccccc3c2n1C,884 s
5,CCOC(=O)c1cnc2nc(C)ccc2c1Nc1cc(Cl)ccc1F,774 s
6,COCC(=O)N1CCC2(CC1)NCc1ccccc1-n1ccnc12,548 s
7,Cc1nc(-c2csc(S(=O)(=O)N3CCCC(C(=O)Nc4ccc(C)c(Cl)c4)C3)c2)no1 (centres undefined),940 s
8,Cc1ccc(Cl)cc1NC(=O)Cn1nc2c(Oc3ccc(C(C)C)cc3)nccn2c1=O,1080 s
9,NCCC1CCN(C(=O)Nc2cc(F)cc(F)c2)CC1,599 s
10,O=[N+]([O-])c1ccc(-c2csc(Nc3ccccc3)n2)cc1,1130 s
11,O=S(c1cc(Cl)cc(Cl)c1O)c1cc(Cl)cc(Cl)c1O,1160 s
12,O=C(Cc1ccc(Cl)cc1)N1CCN(c2nnc3ccccn23)CC1,663 s
13,Cc1ccc(Cl)cc1N1CCN(C(=O)c2[nH]c(C)c(S(=O)(=O)N3CCCC3)c2C)CC1,1060 s
14,COCC1(F)CCN(Cc2c(-c3cc(C)ccc3C)nc3cc(C)ccn23)CC1,636 s
15,COc1cccc(-c2nc(Cc3nc(-c4ccccc4OC)oc3C)no2)c1,1030 s
16,O=C(c1ccco1)N1CCN(C(=O)c2cccn2CC(=O)N2CCc3ccccc32)CC1,711 s
17,Cc1ccc(NS(=O)(=O)c2cc(-c3[nH]ncc3C(=O)N3CCCC3)oc2C)cc1C,776 s
18,O=C(Cc1ccccc1Br)NC1CCN(c2cc(-c3ccc(Cl)cc3)[nH]n2)C1 (centres undefined),831 s
19,Cc1ccc2nc(CN3CCN(C(=O)NCc4ccc(F)cc4)CC3)oc2c1,690 s
20,O=C(NC1CCCCC1)C1CCCN(c2ccc3cc(S(=O)(=O)N4CCCCC4)ccc3n2)C1 (centres undefined),832 s
21,O=C(c1ccoc1)N1CCCC(c2nc(-c3ccc(F)cc3)n[nH]2)C1 (centres undefined),710 s
22,COc1ccc(C(=O)N2CCCCC2c2nncn2CC2CC2)cc1F (centres undefined),718 s
23,Cc1ccc(Oc2nccnc2N2CCCC(C(=O)Nc3ccc(N4CCOCC4)cc3)C2)cc1 (centres undefined),956 s

row,SMILES,RP-LC retention time
1,Cn1nc(-c2ccc(NC(=O)c3ccc([N+](=O)[O-])cc3Cl)cc2)ccc1=O,714 s
2,CCC1Oc2ccc(S(=O)(=O)N3CCC(C(=O)NCc4ccccc4OC)CC3)cc2NC1=O (centres undefined),839 s
3,O=C(CN1C(=O)C2CCCCN2c2ccc(C(=O)N3CCOCC3)cc21)NCc1ccc(F)cc1 (centres undefined),734 s
4,O=C(c1nnc(-c2csc(S(=O)(=O)N3CCN(c4ccccn4)CC3)c2)o1)N1CCCCC1,709 s
5,CCCc1ccc(S(=O)(=O)NC2CCN(c3ccc(=O)n(CC4CC4)n3)CC2)cc1,972 s
6,CC(C)c1noc(COC2CCCN(C(=O)NCc3ccco3)C2)n1 (centres undefined),774 s
7,CN(CCc1noc(-c2ccc(F)cc2)n1)C(=O)NCc1ccccc1,839 s
8,O=C(NCc1csc(-c2ccccc2)n1)C1CCN(S(=O)(=O)c2cccc(Cl)c2)CC1,962 s
9,O=S(=O)(Cc1ccc(-c2nc(-c3ccccc3)no2)o1)c1ccccc1,1010 s
10,O=S(=O)(CCCOc1ccc(F)cc1)NCc1ccccn1,645 s
11,COc1ccc(NC(=O)CN2CCC(C(=O)NCc3ccc(F)cc3F)CC2)c(OC)c1,578 s
12,CNC(=O)C1CCCN(c2nc3ncn(CC(=O)NCC4CCCO4)c(=O)c3s2)C1 (centres undefined),569 s
13,CC1CCN(C(=O)c2cc(S(=O)(=O)N3CCCC(C(=O)Nc4nccs4)C3)c[nH]2)CC1 (centres undefined),756 s
14,O=C1CC(c2noc(-c3ccccc3)n2)CN1c1ccccc1 (centres undefined),921 s
15,CC(C(=O)NCCc1c[nH]c2ccc(Cl)cc12)C1CCN(S(=O)(=O)c2cccs2)CC1 (centres undefined),921 s
16,COc1ccc(N2CC(c3nc(-c4ccc(Cl)cc4)no3)CC2=O)cc1 (centres undefined),998 s
17,O=C(c1ccc(Cl)cc1)N(CC1CCOC1)C1CC1 (centres undefined),791 s
18,CC(C)OCCCNC(=O)c1cc2c(n(-c3ccc(F)cc3)c1=O)CCCC2=O,794 s
19,O=c1c2sccc2n(Cc2nc(-c3ccc(F)cc3)no2)c(=O)n1CCc1ccccc1,1140 s
20,CN1C(=O)C2CCCCN2c2ccc(C(=O)N3CCN(c4cccc(Cl)c4)CC3)cc21 (centres undefined),1060 s
